Reference: US20260144769A1, “4-PHENYLBUTYRATE RESTORED GABA UPTAKE AND REDUCED SEIZURES IN SLC6A1 VARIANT-MEDIATED DISORDERS” (Vanderbilt University, priority 2022, published 2026)

Columns and labels:
[1] = system: wildtype GAT-1 + GAT-1 A288V; assay: 3H GABA uptake, HEK293T, mixture of wildtype and mutant cDNAs ("heterozygous"); assay type: cell-based, rat; details: wildtype:A288V cDNAs 1:1; PBA 2 mM, 24 hrs
Procedure: (§1) GABA uptake activity was measured by the high-throughput 3H radio-labeling GABA uptake on a liquid scintillator with QuantaSmart. […] HEK293T cells were transfected with the wildtype or the mutant GAT-1^YFP cDNAs alone for 48 hr. […] HEK293T cells were transfected with the wildtype GAT-1^YFP alone or in mixture of the wildtype or the mutant cDNAs for 48 hr. In the mixed condition, the ratio of the wildtype GAT-1 with pcDNA or the mutant cDNAs are 1:1 with the total cDNA amount of 0.5 μg. […] Both wt and the mutant were normalized to its own DMSO treated conditions. 966 stands for the wildtype treated with CI-966 (50 μM) while 711 stands for NNC-711 (35 μM). (N=4-7 different transfections. In FIG. 4A and FIG. 4B, *P<0.05, **P<0.01, ***p<0.001 vs. wt 0. In FIG. C and FIG. 4D, *P<0.05, **P<0.01, ***p<0.001 vs. its own DMSO treated. In FIG. 4C, ns stands for no significance. One-way analysis of variance (ANOVA) and Newman-Keuls test. Values were expressed as mean±S.E.M.
(§2) The plasmid cDNA encoding enhanced yellow fluorescent protein (EYFP)-tagged rat GAT-1 has been previously described. The coding region of rGAT-1 was inserted into pEYFP-C1 (Clontech, Palo Alto, CA). QuikChange Site-directed Mutagenesis kit was utilized to introduce the GAT-1 variants into a wildtype GAT-1 plasmid. The product was then amplified via polymerase chain reaction, transformed using DH5a competent cells, and plated. A clone was chosen and grown overnight. All the GAT-1 variants were confirmed by DNA sequencing. Both the wildtype and the variant cDNAs were prepared with Qiagen Maxiprep kit.
(§3) Human embryonic kidney cells were cultured as monolayers in 100 mm^2 dishes. Cells were cultured in Dulbecco's Modified Eagle's Medium supplemented with 10% FBS and 1% penicillin/streptomycin in 37° C. in 5% CO2/95% air. Cells were maintained in culture medium until appropriate confluency for experimentation.
(§4) Briefly, cells were cultured in […] dishes for 3 days before the GABA uptake experiment in DMEM with 10% fetal bovine serum and 1% penicillin/streptomycin. The cells were then transfected with equal amounts of the wildtype or the mutant GAT-1 cDNAs (1 μg) for each condition at 24 hrs or 48 hrs after plating. GABA uptake assay was carried out 48 hrs after transfection. The cells were incubated with preincubation solution for 15 min and then incubated with preincubation solution containing 1 μci/mL 3H GABA and 10 μM unlabeled GABA for 30 min at room temperature. After washing, the cells were lysed with 0.25 N NaOH for 1 hr. Glacial acetic acid was added, and lysates were then determined on a liquid scintillator with QuantaSmart. The flux of GABA (pmol/μg/min) was averaged with at least triplets for each condition at each transfection. The average counting was taken as n=1. The untransfected condition was taken as a baseline that was subtracted from both the wildtype and the mutant conditions. The pmol/μg/min in the mutant was then normalized to the wildtype from each experiment, which was arbitrarily taken as 100%. The protocols for GABA reuptake assay in cultured mouse astrocytes, neuron or iPSC derived cells were modified from the GABA uptake protocol on HEK 293T cells. GAT-1 inhibitors CL-966 and NNC-711 were applied each time to make sure the radioactive counts were specific.
(§5) The working solution was stored at 4° C.

[2] = system: wildtype GAT-1 + GAT-1 D410E; assay: as above; assay type: cell-based, rat; details: wildtype:D410E cDNAs 1:1; PBA 2 mM, 24 hrs
Procedure: as §1, §2, §3, §4, §5

[3] = system: wildtype GAT-1 + GAT-1 L460R; assay: as above; assay type: cell-based, rat; details: wildtype:L460R cDNAs 1:1; PBA 2 mM, 24 hrs
Procedure: as §1, §2, §3, §4, §5

[4] = system: wildtype GAT-1 + GAT-1 S295L; assay: as above; assay type: cell-based, rat; details: wildtype:S295L cDNAs 1:1; PBA 2 mM, 24 hrs
Procedure: as §1, §2, §3, §4, §5

[5] = system: wildtype GAT-1 + GAT-1 V125M; assay: as above; assay type: cell-based, rat; details: wildtype:V125M cDNAs 1:1; PBA 2 mM, 24 hrs
Procedure: as §1, §2, §3, §4, §5

[6] = system: wildtype GAT-1 + GAT-1 W495X; assay: as above; assay type: cell-based, rat; details: wildtype:W495X cDNAs 1:1; PBA 2 mM, 24 hrs
Procedure: as §1, §2, §3, §4, §5

GAT-1 = GAT-1 protein expression in brain regions of SLC6A1^+/A288V heterozygous mice; assay type: in vivo, mouse; details: A288V het; cerebellum; PBA 100 mg/kg, 7 days
From the text: FIGS. 8C-D show integrated density values (IDVs) for total GAT-1 from wild-type and het KI were normalized to the Na^+/K^+ ATPase or anti-glyceraldehyde-3-phosphate dehydrogenase (GAPDH) loading control (LC) in each specific brain region and plotted. N=4 from 4 pairs of mice. […] The vehicle treated in each brain region was taken as 1. N=4 from 4 pairs of mice for FIG. 8C, FIG. 8D, FIG. 8G and FIG. 8H, Values were expressed as mean±S.E.M. One way ANOVA or unpaired t test.
as §5
Data were expressed as mean±SEM. Proteins were quantified by Odyssey software and data were normalized to loading controls and then to the wildtype subunit protein, which was arbitrarily taken as 1 in each experiment. Fluorescence intensities from confocal microscopy experiments were determined using MetaMorph imaging software, and the measurements were carried out in ImageJ. For statistical significance, one-way or two-way analysis of variance (ANOVA) with post hoc Dunnett or Newman-Keuls test were used. In some cases, unpaired t-test or one sample t-test was performed (GraphPad Prism, La Jolla, CA), and statistical significance was taken as p<0.05.

`O=C(O)CCCc1ccccc1` [PBA, 4-phenylbutyric acid] was tested, and the “GABA uptake normalized to its own DMSO treated condition” value (“GABA uptake normalized” for short) [1] was 1.248±0.053, the “GABA uptake normalized” value [2] was 1.17±0.035 and the “GABA uptake normalized” value [3] was 1.214±0.037. For the same molecule, the “GABA uptake normalized” value [4] was 1.318±0.062, the “GABA uptake normalized” value [5] was 1.33±0.05 and the “GABA uptake normalized” value [6] was 1.305±0.0296. The “GAT-1 expression vs. same brain region of vehicle treated mice taken as 1” value (GAT-1) was 1.045±0.028.
